Results as given in US5441983A, “Treatment of infection by enveloped virus with calix(N)arene compounds” (Genelabs Incorporated, priority 1992, dated 1995).

Legend:
[1] = test system: HSV-1 binding to Vero cells; assay: Inhibition of binding of radiolabeled HSV-1 to Vero cells; assay type: cell-based; conditions: 10 μg/ml KY-1, FIG. 30
Protocol: In one study, the ability of a macrocyclic compound to block HSV binding to infectable cells was examined as described in Example 14. Briefly, Vero cells were exposed to radiolabeled HSV-1 or HSV-2 in the absence of KY compound or in the presence of 10 μg/ml KY-1, and binding of the virus at times up to 4 hours after exposure to the virus was measured. […] In the absence of drug, the amount of bound virus increased steadily over two hours, and slightly from 2-4 hours. By contrast, virus binding to cells peaked at about 1/2 hour in the presence of drug, presumably reflecting the time during which the binding events effective to block virus binding to the cells are equilibrating.
At time intervals of 5, 30, 60, 120, and 240 minutes, cells were removed from the suspension, washed two times with PBS, and assayed for bound virus (cpm ^3 H). The results are given in FIG. 30, where the control virus binding is indicated by solid circles, and the drug-inhibited binding, by open rectangles.

[2] = test system: HSV glycoproteins gD, gB, and gC; assay: Identification of KY-1 binding proteins; design: species or system HSV-1; conditions: FIG. 32B
Text: In a fourth study, the binding of radiolabeled KY-1 compound to HSV-1 and HSV-2 viral proteins was examined. After compound binding, virus proteins were fractionated by sodium dodecyl sulfate polyacrylamide gel electrophoresis (SDS-PAGE), and the gel patterns developed by autoradiography. In FIG. 32A, lanes A and B in the figure are autoradiographs of HSV-1 proteins in the presence ([…]) and absence (lane B) of mercaptoethanol, and lanes C and D, analogous patterns for HSV-2 proteins. The lane at the right contains the molecular weight markers, as indicated. The major bands of drug binding in HSV-1 have molecular weights, as determined from SDS-PAGE, of 45, 66, and about 130 kilodaltons.
HSV-1 and HSV-2 virus suspensions were solubilized with SDS and fractionated on SDS-PAGE as above. Each sample was run in triplicate, corresponding to groups D, B, and C in FIG. 32B. The two gels in each group were analyzed by Western blotting as follows: The gels in groups D, B, and C were first reacted with mouse monoclonal antibody specific against HSV glycoprotein gD, gB, and dC, respectively. The antibodies were obtained from Dr. S. Chatterjee from the University of Alabama. The gels were then incubated with alkaline phosphatase-labeled goat antimouse antibody, to label the glycoprotein in each group. […]

HSV-1 and HSV-2 = assay: Viral yield inhibition, HeLa cells, plaque count on Vero cells; conditions: up to 10 μg/ml, FIGS. 29A and 29B, depending on drug and virus
Protocol: The ability of selected naphthalene-subunit compounds to inhibit HSV-1 and HSV-2 viral yields at selected drug concentrations up to 10 μg/ml was assessed in the viral inhibition assay described in Example 7. Briefly, cultured Hela cells were exposed to serially diluted KY compound and virus, allowed to grow for 24 hours, then freeze/thawed 3 times to release virus particles. Vero cells were infected serial dilutions of the viral lysates were assayed for plaque counts as described in Example 6.
1×10^6 HeLa S3 were plated in 25 T flasks in 5 ml RPMI-1640+5% FCS+P/S. 24 hours later, the medium was aspirated and replaced with 6×10^6 PFU HSV-1 or HSV-2, and serial dilutions of selected KY compounds, at 10, 5, 2.5, 1.25, and 0.625 μg/ml drug. After growth at 37° C. for 24 hours in 2 ml of RPMI-1640 containing 2% FCS and P/S, the cells were frozen at -70° C. until the time for titration. The cells were freeze/thawed 3 times to release virus from the cells, and serially diluted 10 fold.
1×10^5 Vero cells were plated in each well of 24 well multi-dish in 1 ml RPMI-1640+5% FCS+P/S+0.1% methylcellulose (15 cps). On the second day, after removal of the medium, the 10 fold serially diluted virus in 100 μl was added in duplicate. […] The plaques formed were counted and the titer was calculated from the fold of dilutions.

O=S(=O)(O)c1cc2cc(S(=O)(=O)O)c3c(O)c2c(O)c1Cc1c(S(=O)(=O)O)cc2cc(S(=O)(=O)O)c(c(O)c2c1O)Cc1c(S(=O)(=O)O)cc2cc(S(=O)(=O)O)c(c(O)c2c1O)Cc1c(S(=O)(=O)O)cc2cc(S(=O)(=O)O)c(c(O)c2c1O)C3 [KY-1]
time at which virus binding to cells peaked [1]: about 1/2 | proteins bound (major bands) [2]: correspond in molecular weight, to HSV glycoproteins gD, gB, and gC | dose dependent drop in viral yield (HSV-1 and HSV-2): 3-5 orders of magnitude
